# In US7491705B2, “Alpha-ketoamide derivative, and production method and use thereof” (Senju Pharmaceutical Co., Ltd., priority 2003, dated 2009):
# Legend:
# [1] = Solubility in 10 mM phosphate buffer (pH 7.0); assay type: physicochemical
# Procedure: Solubility of the compounds of the present invention in 10 mM phosphate buffer (pH 7.0) was measured.
# [2] = Partition coefficient using IAM column; assay type: physicochemical; settings: IAM Fast Screening Mini-Column; Dulbecco's phosphate buffer (pH 7.4)
# Procedure: Analysis by HPLC system was carried out under the conditions given below, and retention time of each substance was measured. • Column: IAM Fast Screening Mini-Column (Regis Technologies, Inc.) • Mobile phase: Dulbecco's phosphate buffer (pH 7.4) • Detection wavelength: 250 nm • Column temperature: room temperature • Injection amount: 5.0 to 20 μL • Flow rate: 0.5 mL/min • Sample solution: 5 mg of sample was dissolved in 100 μL of acetonitrile, and a mobile phase was added to make 1 mL of a sample solution.
# The measured value was inserted into the following formula, and the partition coefficient (K′ IAM) was calculated. k′IAM=(tR−t0)/t0 t0: retention time of the peak derived from acetonitrile tR: retention time of the peak of the sample
# [3] = Transportation rate into blood after oral administration; assay type: in vivo, Macaca fascicularis (crab-eating monkey); settings: cynomolgus monkey, 10 mg/kg, Macaca fascicularis, plasma; for AUC(0-t): read-out: AUC 0→4 hr
# Procedure: The compound of the present invention was administered orally to Macaca fascicularis (crab-eating monkey) at a dose of 10 mg/kg. The blood was collected with the lapse of time, and the concentration of each compound in the plasma was measured.
# in vitro = settings: human, Caco-2
# Procedure: (§1) As a culture medium for the incubation, Dulbecco's modified Eagle's minimum essential medium (GIBCO BRL) supplemented with 10% fetal calf serum (GIBCO BRL), antibiotic-antimycotic mixture, liquid (GIBCO BRL), non-essential amino acid solution (GIBCO BRL) and 2 mmol/L L-glutamine (GIBCO BRL) was used. […] Propranolol was used as a positive control, and ^14C-mannitol was used as a negative control. LC-MS/MS was used for quantitative analysis of samples, and a liquid scintillation counter was used for quantitative analysis of ^14C-mannitol.
# (§2) Papp: apparent permeation coefficient (cm/sec)
# δQ/δt: permeation velocity (pmol/min)
# A: area of monolayer cell=0.33 cm^2
# (§3) C0: initial concentration at apical membrane side (pmol/mL)
# ganglion cells of retina = assay: Rat retinal ischemia reperfusion injury; assay type: in vivo; settings: 100 mg/Kg oral, 15 minutes before ischemia and immediately after release, 7 days after reperfusion, P<0.05 vs control
# Procedure: Male SD rats (body weight: 150-200 g, purchased from Charles River Japan, Inc.) were used. For anesthesia, a mixture of equivalent amounts of 50 mg/mL ketamine injection and 20 mg/mL xylazine injection was administered intramuscularly at 1.0 mL/Kg body weight into the femora of the rats 15 minutes before ischemia. To achieve ischemia, the optic nerve including central retinal artery was ligated using a Sugita Clip minitype (No. 98), and the blood flow was blocked for 55 minutes. Such ligation was released 55 minutes after the above ligation, and blood flow was made to run again into retina (hereinafter, referred to as ischemia reperfusion). For normal group, central retinal artery was only exposed and ischemia was not set up. After 7 days from reperfusion in ischemia, a tissue specimen was prepared. For preparation of the tissue specimen, an excess amount of pentobarbital solution was intraperitoneally administered to sacrifice the animal, and eyeball was enucleated. The enucleated eyeball was dipped and fixed for 24 hours in a fixing solution of 2% paraformaldehyde and 2.5% glutaraldehyde (0.1 M phosphate buffer, pH 7.4). […] The stained sections were observed under an optical microscope, and ganglion cells of retina per 0.25 mm width of retina section at 1-2 mm from the center of the optic disc were counted. […]
# Caco-2 cells = assay: Permeability test with Caco-2 cells; settings: apical pH 6.5 → basolateral pH 7.4; 10 μm sample; 37° C.
# Procedure: as §1, §2
# δQ/δt: permeation velocity (pmol/min)
# A: area of monolayer cell=0.33 cm^2
# as §3
Compound,Solubility [1],IAM (Log k′IAM) [2],Cmax [3],AUC(0-t) [3],Papp A→B at 10 μm (in vitro),Ganglion cell count after retinal ischemia reperfusion (ganglion cells of retina),Caco-2 Papp(a−b) (Caco-2 cells)
"COCCOC(=O)N[C@@H](CC(C)C)C(=O)N[C@@H](Cc1ccccc1)C(=O)C(=O)NC1CC1 [Compound 4, ((1S)-1-((((1S)-1-Benzyl-2,3-dioxo-3-(cyclopropylamino)propyl)amino)carbonyl)-3-methylbutyl)carbamic acid 2-methoxyethyl ester]",1300 µg/mL,1.20,1200 nM,1.9 µM·h,2.7 ×10⁻⁶ cm/s,–,–
"COCCOCCOC(=O)N[C@@H](CC(C)C)C(=O)N[C@@H](Cc1ccccc1)C(=O)C(=O)NC1CC1 [Compound 17, ((1S)-1-((((1S)-1-Benzyl-2,3-dioxo-3-(cyclopropylamino)propyl)amino)carbonyl)-3-methylbutyl)carbamic acid 5-methoxy-3-oxapentyl ester]",650 µg/mL,1.27,1100 nM,2.4 µM·h,–,significantly suppressed the decrease,–
"OCC(O)C(O)C(O)C(O)[14CH2]O (centres unmarked) [^14C-Mannitol, ^14C-mannitol]",–,–,–,–,–,–,0.6 (cms^−1) × 10^−6
